System: Culex pipiens
Test: Mosquito repellent activity in white mouse assessed as ratio of number of biting mosquito in treated to untreated control at 1.5 hrs
Assay type: functional

## CCC(=O)OC1CC(C)CCC1C(C)C (stereo not given)
  Ratio: 40.5

## CCC(=O)OCCC1C2CCC(C2)C1(C)C (stereo not given)
  Ratio: 56.8

## CC1=CCC(C(C)(C)O)CC1OC=O (stereo not given)
  Ratio: 90

## C=C(C)C1CC=C(CCOC(C)=O)CC1 (stereo not given)
  Ratio: 58.5

## CC(=O)OCCC1C2CCC(C2)C1(C)C (stereo not given)
  Ratio: 53

## CCCOCCC1=CCC2CC1C2(C)C (stereo not given)
  Ratio: 72.5

## CC1CCC(C(C)C)C(O)C1 (stereo not given) [MENTHOL]
  Ratio: 53

## CC(=O)OC1CC(C(C)(C)O)CC=C1C (stereo not given)
  Ratio: 81

## COCCC1=CCC2CC1C2(C)C (stereo not given)
  Ratio: 52.1

## CCOCCC1=CCC2CC1C2(C)C (stereo not given)
  Ratio: 62.2

## CC1(C)C2CC=C(CCOC=O)C1C2 (stereo not given)
  Ratio: 56.1

## CC(=O)OC1CC(C)CCC1C(C)C (stereo not given)
  Ratio: 38.7

## CC(=O)OCCC1=CCC2CC1C2(C)C (stereo not given)
  Ratio: 60.8

## C=C(C)C1CC=C(CCOC(=O)CC)CC1 (stereo not given)
  Ratio: 63.6

## CC1(C)C2CC3OC3(C)C1C2 (stereo not given)
  Ratio: 37.8

## CC1(C)C2CC=C(CCO)C1C2 (stereo not given) [Nopol]
  Ratio: 69

## CCC(CCCC1C2CCC(C2)C1(C)C)OC(C)=O (stereo not given)
  Ratio: 50.2

## CCCC(CCCC1C2CCC(C2)C1(C)C)OC(C)=O (stereo not given)
  Ratio: 51.7

## CCC(CCC1C2CCC(C2)C1(C)C)C(C)OC(C)=O (stereo not given)
  Ratio: 51.5

## CCC(=O)OCCC1=CCC2CC1C2(C)C (stereo not given)
  Ratio: 64.4

Source: ChEMBL document CHEMBL1145625, “QSAR study of mosquito repellents from terpenoid with a six-member-ring” (2008)
